Measurements: paper PMC5838524 (Molecular Informatics, 2018)

What was measured:
Experiment in all cases: Gal4 hybrid reporter gene assay
Type in all cases: cell-based
Details in all cases: agonist mode; printed as 'inactive' (no significant transactivation at 30 μM)
PPARα = biological target: T1, PPARα (Homo sapiens, UniProt Q07869)
T1 sequence (Q07869 167-468 limits assumed): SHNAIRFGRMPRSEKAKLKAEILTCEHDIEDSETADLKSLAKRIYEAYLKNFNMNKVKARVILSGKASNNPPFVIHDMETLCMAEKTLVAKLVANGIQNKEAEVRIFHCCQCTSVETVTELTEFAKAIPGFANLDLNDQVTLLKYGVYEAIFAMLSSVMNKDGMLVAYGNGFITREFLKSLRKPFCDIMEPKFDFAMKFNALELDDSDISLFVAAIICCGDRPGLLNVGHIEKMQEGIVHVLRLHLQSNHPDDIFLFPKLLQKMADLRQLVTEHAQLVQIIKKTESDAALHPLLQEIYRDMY

PPARδ = biological target: T2, PPARδ (Homo sapiens, UniProt Q03181)
T2 sequence (Q03181 139-441 limits assumed): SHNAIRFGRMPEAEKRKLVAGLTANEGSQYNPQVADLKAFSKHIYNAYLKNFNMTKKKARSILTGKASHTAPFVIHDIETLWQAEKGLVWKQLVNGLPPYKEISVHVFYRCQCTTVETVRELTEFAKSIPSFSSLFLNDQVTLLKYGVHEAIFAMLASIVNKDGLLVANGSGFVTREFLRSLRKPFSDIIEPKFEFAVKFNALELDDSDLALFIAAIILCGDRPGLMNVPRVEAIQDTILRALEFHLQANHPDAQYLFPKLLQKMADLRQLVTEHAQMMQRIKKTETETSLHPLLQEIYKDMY

RXRα = biological target: T3, RXRα (Homo sapiens, UniProt P19793)
T3 sequence (P19793 225-462 limits assumed): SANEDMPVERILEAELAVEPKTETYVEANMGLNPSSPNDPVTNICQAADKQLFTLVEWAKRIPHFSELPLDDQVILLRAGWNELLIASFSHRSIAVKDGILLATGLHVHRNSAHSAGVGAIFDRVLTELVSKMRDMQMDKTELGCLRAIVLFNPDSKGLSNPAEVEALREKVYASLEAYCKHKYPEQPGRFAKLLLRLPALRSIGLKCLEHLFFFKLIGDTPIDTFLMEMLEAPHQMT

RXRβ = biological target: T4, RXRβ (Homo sapiens, UniProt P28702)
T4 sequence (P28702 296-533 limits assumed): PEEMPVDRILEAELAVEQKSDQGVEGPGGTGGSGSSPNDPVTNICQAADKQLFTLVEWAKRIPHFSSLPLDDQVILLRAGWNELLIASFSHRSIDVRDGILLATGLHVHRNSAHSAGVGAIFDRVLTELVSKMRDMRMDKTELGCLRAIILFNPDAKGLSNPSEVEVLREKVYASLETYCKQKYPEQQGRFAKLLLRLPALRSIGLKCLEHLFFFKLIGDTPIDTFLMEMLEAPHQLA

RXRγ = biological target: T5, RXRγ (Homo sapiens, UniProt P48443)
T5 sequence (P48443 231-459 limits assumed): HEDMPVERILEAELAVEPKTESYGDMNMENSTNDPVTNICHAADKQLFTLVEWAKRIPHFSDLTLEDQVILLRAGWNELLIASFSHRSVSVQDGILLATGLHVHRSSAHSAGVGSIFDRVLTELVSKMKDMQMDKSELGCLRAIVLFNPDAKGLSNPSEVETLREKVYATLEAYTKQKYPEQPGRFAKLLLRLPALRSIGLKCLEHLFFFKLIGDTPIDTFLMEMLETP

EC50 (PPARα) [µM]	EC50 (PPARδ) [µM]	EC50 (RXRα) [µM]	EC50 (RXRβ) [µM]	EC50 (RXRγ) [µM]	SMILES
> 30	> 30				O=C(O)c1cccc(NC(=O)c2ccc(-c3ccccc3)s2)c1 [compound 1, design 1]
> 30	> 30				O=C(O)c1ccc(-c2cc(F)ccc2OCc2ccc(F)cc2)c(C(F)(F)F)c1 [compound 2, design 2]
	> 30	> 30	> 30	> 30	O=C(O)c1ccc(-c2cccc(O)c2)cc1OC1CCCC1 [compound 3, design 3]
